Reference: patent US10675273B2, “Benzothiazole amphiphiles” (The Regents of the University of California, priority 2016, dated 2020)

Assays:
[1] = test system: rat primary hippocampal neurons; details: previously reported study [40]; cited from earlier work
RasGRF1 = assay: Western blot analysis of RasGRF1 expression; type: cell-based, human; details: differentiated SH-SY5Y cells; for increase in RasGRF1 expression compared to untreated cells: 5 μM, 24 h, normalized to β-tubulin
Method: Western Blot Analysis of Ras-GRF1 Expression in SH-SY5Y Cells Exposed to BAMs 1-3 or BTA-EG6. Differentiation of SH-SY5Y cells was performed according to a previously described procedure. Briefly, cells were differentiated for 8 days by the addition of 10 μM all-trans-retinoic acid (RA) in the cell culture medium (1:1 EMEM and Ham's F12 supplemented with 10% FBS). Media with RA was changed every 2 days. After 8 days, the media was removed and new, RA-free media containing the sample solutions was added. Cells were exposed to solutions containing a final concentration of the BTA-E6 and BAMs (0, 1, or 5 μM) for 24 hours at 37° C. Cells were than lysed with NP-40 buffer with protease inhibitor (Roche, ref #05892791001) and protein concentration was determined by BCA assay (Pierce BCA Assay Kit, #23225). Proteins were separated by SDS-PAGE (NUPAGE® 4-12% Bis-Tris gel, NUPAGE® MES SDS running buffer) followed by transfer onto nitrocellulose membrane (NOVEX®, LC2000). Membranes were blocked with 3% BSA in Tris-Buffered Saline with Tween 20 (TBST) for 1 h followed by incubation with primary antibodies in 3% BSA/TBST [mouse anti-RasGRF1 (BD 610149) and mouse anti-tubulin-β (Thermo MS1226-P)] overnight at 4° C. with shaking. Membranes were then washed with TBST (3×10 min) and then incubated with a TRITC labeled goat anti-mouse antibody (JAX 115-025-003) for 1 h at RT with shaking. After 1 h, the membranes were washed with TBST (6×5 min) and the proteins were visualized using a Typhoon 8600 variable mode imager (GE Healthcare). The density of each band was then quantified using ImageJ software as a percentage of control following normalization to β-tubulin.

[2] = test system: rat primary hippocampal neurons; assay: Dendritic spine density and morphology in primary hippocampal neurons; type: cell-based; details: 24 h exposure, versus vehicle control (0.1% DMSO)
Method: Neuronal Cultures. Rat dissociated hippocampal neurons from postnatal day 1 were plated at a density of 45,000 cells/cm^2 onto poly-D-lysine-coated coverslips. Neurons were maintained in B27 supplemented Neurobasal media (Invitrogen) until days in vitro (DIV) 18-23 as previously described.
Neuronal Treatments. For all neuronal treatments the following general protocol was followed: Briefly, 18-23 DIV rat dissociated hippocampal neurons were dosed with various concentrations (0-50 μM final concentration) of BAMs 1-3 or BTA-EGx (with 0.1% final DMSO concentration) for various times (24-72 h depending on the experiment). After dosing and at the desired time point, the media was removed and cells were rinsed with PBS-MC (phosphate-buffered saline, 1 mM MgCl2 and 0.1 mM CaCl2). Following rinsing, cells were fixed with 4% paraformaldehyde (PFA)/sucrose in PBS for 10 min at RT. […]
Confocal Microscopy and Dendritic Spine Analysis. […] Imaged dendrites were straightened using ImageJ, and spine density was the number of manually counted spines divided by dendrite segment length. The analyzer was blind to treatment and statistical significance was determined between experimental conditions by either unpaired t tests (two groups) or by ANOVA and indicated post hoc multiple-comparison test (>2 experimental conditions).

[3] = test system: human iPSC-derived neurons; assay: Spine density of PSD95 puncta in 3-month differentiated NSC; type: cell-based; details: 5 μM, control DMSO (0.1%)
Method: FIG. 10. Quantification of spine density of PSD95 puncta from 3-month differentiated NSC treated with compound or vehicle control The figure depicts neuron micrographs with staining for MAP2, PSD95 and composite under control and compound administration conditions. “Compound” refers to BAM3-EG6 (5 μM), as depicted in FIG. 1. “Control” refers to DMSO (0.1%). MAP2 is a marker for dendrites, and PSD95 is a marker for post-synaptic features. A histogram (below) depicts normalized PSD95 puncta under control and compound administration conditions. It is observed that […] increases spine density by about 50% compared to control in human iPSC-derived neurons.
FIG. 10 depicts quantification of spine density of PSD95 puncta from 3-month differentiated NSC treated with compound or vehicle control. It is observed that BTA-EG4 analog (e.g., those depicted in FIG. 1) increases spine density by about 50% compared to control in human iPSC-derived neurons.

[4] = previously reported [18,19], cited from earlier work
[5] = test system: SH-SY5Y human neuroblastoma cells; assay: MTT cell viability assay; type: cell-based; details: 24 h exposure, read-out: IC50 of toxicity
Method: Measurement of Cell Viability in the Presence of BAMs 1-3 and BTA-EG6. An MTT cell viability assay was performed as previously described. Briefly, SH-SY5Y cells were plated in a 96 well plate at a density of 50,000 cells/well in 100 μL of 1:1 Eagle's Minimum Essential Medium (EMEM) and Ham's F12, supplemented with 10% Fetal Bovine Serum (FBS). Cells were allowed to adhere overnight (37° C., 5% CO2) before dosing with 100 μL of various samples solutions of either BTA-EG6 or BAMs 1-3 with final concentrations (0-250 Cells were exposed to these solutions for 24 h at 37° C., 5% CO2. An MTT cell viability kit (ATCC, Product No: 30-1010K) was then used to determine cell viability. Briefly, 20 μL of the provided MTT reagent was added per well and cells were placed in the incubator for 3 h. The insoluble intracellular purple formazan was then dissolved by the addition of 100 μL of detergent reagent provided and let solubilize overnight at room temperature. The cell viability was determined by measuring the absorbance at 570 nm using a SPECTRAMAX® 190 microplate reader (Molecular Devices). All results are presented as percent reduction of MTT relative to untreated cells (100% viability), and all wells were blanked with absorbance values from the wells containing media, MTT reagent and detergent only.

[6] = test system: rat primary hippocampal neurons; assay: Rescue of Aβ-induced spine loss; type: cell-based; details: 1 μM Aβ (1-42) plus 1 or 5 μM compound, 3 days
[7] = Fluorescence emission spectra in water, octanol and aqueous liposome suspension (membrane partitioning); type: physicochemical; details: 50 μM compound, DiPhyPC liposomes
Method: Measurement of Fluorescence Emission Spectra. The emission spectra of benzothiazoles in different environments was evaluated as previously described. Briefly, BAMs 1-3 and BTA-EG6 were diluted to a final concentration of 50 μM in deionized H2O, pure octanol, and a liposome suspension. The liposomes were prepared from a total lipid concentration of 10 mM of DiPhyPC in water by the gentle dehydration rehydration method followed by tip sonication. 200 μL of each sample was transferred to a cuvette (Hellma® Analytics, Quartz […]® (QS), 10 mm) and the fluorescence emission spectrum was measured in a PTI spectrofluorometer (0.5 nm step size) in water, octanol and an aqueous liposome suspension for BAMs 1-3 and BTA-EG6. Maximal excitation and emission values (λmax) for all compounds were as follows: BTA-EG6 (Ex/Em 355/420 nm), BAM1-EG6 (Ex/Em 355/420 nm), BAM2-EG6, (Ex/Em 365/428 nm), and BAM3-EG6 (Ex/Em 335/398 nm). Each experiment was repeated at least three separate times and error bars denote standard deviation from the mean. Data was processed using ORIGIN® 7.0 (MicroCal Software, Inc., Northampton, Mass.).

C[C@]12CC[C@@H]3c4ccc(O)cc4CC[C@H]3[C@@H]1CC[C@@H]2O [17β-estradiol]
time required to induce maximal increase in spine density [1]: 96 h

OCCOCCOCCOCCOCCOCCSc1ccc(-c2nc3ccccc3s2)cc1 [BAM3-EG6, 17-((4-(benzo[d]thiazol-2-yl)phenyl)thio)-3,6,9,12,15-pentaoxaheptadecan-1-ol]
increase in RasGRF1 expression compared to untreated cells (RasGRF1): 70%

Cc1ccc2nc(-c3ccc(NCCOCCOCCOCCO)cc3)sc2c1 [BTA-EG4]
increase in RasGRF1 expression compared to untreated cells (RasGRF1): 20%
effect on RasGRF1 expression levels (in words) (RasGRF1; 1 or 5 μM / increasing concentrations): dose-dependent increase in RasGRF1 levels
effect on dendritic spine density (in words) [2]: observed increase in dendritic spine density over the vehicle control
increase in spine density (PSD95 puncta) compared to control [3]: about 50%
dendritic spine density in vivo ([4]; mice): phenotypic increase in dendritic spine density
memory and learning in cognitive performance tests ([4]; wild-type mice and mouse model for AD): capability to improve memory and learning

Cc1ccc2nc(-c3ccc(NCCOCCOCCOCCOCCOCCO)cc3)sc2c1 [BTA-EG6]
IC50 [5]: 90 µM
increase in RasGRF1 expression compared to untreated cells (RasGRF1): approximately 20%
net increase in dendritic spine density compared to control [6]: ~20%
spine density higher than in cells treated with Aβ (1-42) alone [6]: ~50%
change of emission max (λmax) in aqueous liposome suspension from water, relative to λmax in pure octanol [7]: 50%
